In publication PMC10510102, “Efficient Ligand Discovery Using Sulfur(VI) Fluoride Reactive Fragments” (ACS Chemical Biology, 2023):
pKi: −log10 of the molar value.

Legend:
CAII [1] = biological target: T1, CAII (Homo sapiens, UniProt P00918); assay: Kinetic analyses of covalent modification, intact protein LC-MS; assay type: binding; set-up: purchased Sigma Aldrich C6624-500UG; host or cells: E. coli; conditions: 0.5 μM CAII; 5-100 μM SF; 0-24 h; 20 °C
Method: The kinetics of binding were investigated by incubation of the resynthesized and purified SFs 2b–e with CAII at a range of concentrations and analysis by intact protein LC–MS over a 24 h period (see Figure S9). The concentration–response was analyzed based on a two-step model of reversible ligand (L) binding and subsequent irreversible covalent modification of the protein (P) (P + L ⇌ P·L → PL) (see Figure S10).[24] Time courses were fit to a single exponential function to give a kobs for each concentration (Figure 3d). These were then fitted using a Michaelis–Menten model to determine kinact (corresponding to the rate of covalent-bond formation) and KI (corresponding to the recognition of the ligand for the protein pocket) (Figure 3e,f). […]. This is consistent with the strong binding of aryl sulfonamides to the CAII Zn^2+ binding pocket.[33] […] The slow rate of the reaction may be attributed to a suboptimal trajectory of the SF group toward the His64 residue in the reversible bound conformation and/or low nucleophilicity of the residue.[14]
The (resynthesized and purified) SF hits (2b–e, 10 mM) were plated into seven 384-well plates with DMSO to make up identical plates with final concentrations of 100, 50, 20, 10, or 5 μM after adding 15 μL of protein stock solution per well. The percentage of DMSO was kept constant. Purified CAII was subsequently added across all plates. Final concentrations were 0.5 μM protein; 100, 50, 20, 10, or 5 μM SF. The plates were sealed and centrifuged, and the first six plates were immediately queued for analysis by intact protein LC–MS at a temperature of 20 °C with the final plate paused for a 24 h timepoint.
5. CAII – kinetic analyzes
5.1. Protocol for kinetic analyzes (CAII)
The (resynthesized and purified) SF hits (2b–e) were plated into seven Greiner 384 white low volume plate from a 10 mM source in DMSO. Differing volumes were added such that the final concentrations for each compound would be: 100, 50, 20, 10, or 5 µM after adding 15 µL of protein stock solution per well. Volumes of DMSO were made to be consistent for every well. Purified CAII diluted from original stock into a buffer made up of HEPES (pH 7.5, 25 mM) and NaCl (50 mM) in distilled MS-grade water (15 µL per well) was subsequently added across the plates. Final concentrations: 0.5 µM protein; 100, 50, 20, 10, or 5 µM SF. The plates were sealed, centrifuged (1 min, 1000 rpm), and the first six plates were immediately queued for analysis by intact protein LC-MS at a temperature of 20 °C with the final plate paused for a 24 h timepoint. The resulting modification yields were plotted in GraphPad Prism (Version 5.0.4) software against the time of sampling.11 Non-linear regression analyzes were conducted using a ‘one-phase association’ model, with the y=0 value constrained to ‘0’ and plateau value constrained to ‘100’. The observed rate constants (kobs, value ‘K’ in GraphPad) were extracted for each compound at each concentration, then replotted against the corresponding compound concentration. Further non-linear regression analyzes were conducted using a ‘Michaelis-Menten’ model, from which kinact values (‘Vmax’ in GraphPad) and KI values (‘Km’) were extracted. […]
To a Labcyte 384LDV plate containing 96 amine functionalized fragments (10 mM) in DMSO (5 µL per well) was added a stock solution of OSu 2a (10 mM) and NEM (30 mM) in DMSO (5 µL per well). The plate was sealed, centrifuged (1 min, 1000 rpm), and allowed to sit at room temperature for 1 h. After the reaction (assumed product concentration: 5 mM), a Labcyte ECHO© 555 Liquid Handler was used to transfer the library of SFs to a Greiner 384 white low volume plate. […]

CAII [2] = biological target: T1, CAII; assay: Identification of site of covalent modification by tandem MS; set-up: purchased Sigma Aldrich C6624-500UG; host or cells: E. coli; conditions: for major site of covalent modification: 2 μM CAII, 50 μM SF, 24 h, 20 °C, trypsin digest LC-MS/MS; for minor site of covalent modification: N-terminal peptide 1MSHHWGYGK9
Source text: Tandem MS analyses were subsequently employed for identification of the amino acid residue(s) that was covalently modified. Samples of CAII modified by the resynthesized and purified SFs 2d and 2e were digested using trypsin and analyzed by LC–MS/MS. This identified peptides 59ILNNGH*AFNVEFDDSQDKAVLK80 and 59ILNNGH*AFNVEFDDSQDK76 as the major site(s) of modification on His64 for both 2d (366 Da) (see Figure S6) and 2e (380 Da) (Figure 3b), respectively. Further to this, minor modifications were observed on the N-terminal peptide 1MSHHWGYGK9 at His3 (2d and 2e) and Tyr7 (2d only).
The (resynthesized and purified) SF hits (2d and 2e, 10 mM) were plated into a 384-well plate. Purified CAII was subsequently added across the plate. Final concentrations: 2 μM protein; 50 μM SF. The plate was sealed, centrifuged, and incubated at 20 °C for 24 h, and 15 μL aliquots were subsequently removed and analyzed by intact protein LC–MS. The remaining samples (1 μg) were separated by sodium dodecyl sulfate-polyacrylamide gel electrophoresis to remove excess unbound compounds. Gels were stained with colloidal Comassie InstantBlue, and bands corresponding to CAII were excised, reduced with TCEP (10 mM, 65 °C, 30 min), and alkylated with iodoacetamide (10 mM, rt, 30 min, dark). Samples were digested with trypsin (1:10 E/S, 37 °C, 16 h) in ammonium bicarbonate (100 mM). After removal of the supernatant, peptides were extracted using acetonitrile. Combined supernatants were centrifuged and acidified prior to injection into the LC–MS/MS system. Tandem MS spectra were searched for peptide matches against the sequence for CAII. Raw files were searched using trypsin as the enzyme. Masses corresponding to [SF – HF] were allowed as variable modification(s) on cysteine, histidine, lysine, tyrosine, serine, and threonine as well as the protein N-terminus. MS/MS spectra were manually validated and annotated. […]
4.2. Identification of the site of covalent modification by tandem MS (CAII)
The (resynthesized and purified) SF hits (2d and 2e) were plated into a Greiner 384 PP F-bottom plate from a 10 mM source in DMSO.
Purified CAII diluted from original stock into a buffer made up of HEPES (pH 7.5, 25 mM) and NaCl (50 mM) in distilled MS-grade water (50 µL per well) was subsequently added across the plate. Final concentrations: 2 µM protein; 50 µM SF. The plate was sealed, centrifuged (1 min, 1000 rpm), incubated at 20 °C for 24 h, and 15 µL aliquots were subsequently removed and analyzed by intact protein LC-MS. The remaining samples (1 μg) were separated by SDS-PAGE to remove excess unbound compound. Gels were stained with colloidal Comassie InstantBlue and bands corresponding to CAII were excised, reduced with 10 mM TCEP (65 °C, 30 mins), and alkylated with 10 mM iodoacetamide (r.t., 30 mins, dark). […]

Compound: NS(=O)(=O)c1ccc(CCNC(=O)Cc2ccc(S(=O)(=O)F)cc2)cc1 [2e]
- pKi (CAII [1]): > 5.30
- kinact (CAII [1]): 1.8e-05 s⁻¹
- kinact/KI (CAII [1]): > 3.6 M⁻¹ s⁻¹
- major site of covalent modification (CAII [2]): His64
- minor site of covalent modification (CAII [2]): His3

Compound: CC(NC(=O)Cc1ccc(S(=O)(=O)F)cc1)c1cccc(S(N)(=O)=O)c1 (stereo not shown) [2b]
- KI (inactivation) (CAII [1]): 8.9 µM
- kinact (CAII [1]): 3.2e-05 s⁻¹
- kinact/KI (CAII [1]): 3.6 M⁻¹ s⁻¹

Compound: NS(=O)(=O)c1cccc(CNC(=O)Cc2ccc(S(=O)(=O)F)cc2)c1 [2d]
- pKi (CAII [1]): > 5.30
- kinact (CAII [1]): 3e-05 s⁻¹
- kinact/KI (CAII [1]): > 6.1 M⁻¹ s⁻¹
- major site of covalent modification (CAII [2]): His64
- minor site of covalent modification (CAII [2]): His3 and Tyr7

Compound: NS(=O)(=O)Cc1cccc(CNC(=O)Cc2ccc(S(=O)(=O)F)cc2)c1 [2c]
- KI (inactivation) (CAII [1]): 16 µM
- kinact (CAII [1]): 3.3e-05 s⁻¹
- kinact/KI (CAII [1]): 2 M⁻¹ s⁻¹
